From patent publication US6187800A, “Method for the prevention and treatment of mastitis” (Novartis Animal Health U.S., Inc., priority 1997, dated 2001)

Tests used:
[1] = system: Staphylococcus aureus V557; assay: MIC, agar well diffusion method; assay type: cell-based; conditions: 37° C. overnight
Experimental: (§1) The minimal inhibitory concentrations (MIC) of micrococcin P1 against a panel of test organisms were determined using an agar well diffusion method. Agar plates were overlaid with soft agar seeded with the test organism. When the agar had solidified wells of 4 mm diameter were cut in the agar. 50 μl of a series of two fold dilutions of the peptide in citrate buffer pH4 were applied to the wells and the plates were kept at 4° C. for two hours prior to incubation at 37° C. overnight. The MIC was determined as the lowest concentration of peptide giving a clear zone of lysis around the well. Indicator strains were grown in Tryptose broth (Difco). M17 medium (Merck) was used for plates and soft agar with the following exceptions. For Pasteurella haemolytica, tryptose supplemented with 5% of toetal calf's serum was used. For Leuconostoc mesenteroides, plate count agar--Merck--, +15% saccharose was used, and for Bacillus cereus plate count agar +0.2% potato starch-Sigma 2004-) was used.

[2] = system: Leuconostoc mesenteroides; assay: MIC, agar well diffusion method; assay type: cell-based; conditions: plate count agar +15% saccharose
Experimental: as §1

Pasteurella haemolytica = assay: MIC, agar well diffusion method; assay type: cell-based; conditions: tryptose + 5% foetal calf's serum
Experimental: as §1

Streptococcus faecalis = assay: MIC, agar well diffusion method; assay type: cell-based; conditions: 37° C. overnight
Experimental: as §1

Listeria innocua = assay: MIC, agar well diffusion method; assay type: cell-based; conditions: 37° C. overnight
Experimental: as §1

[3] = system: Staphylococcus aureus Newbould; assay: MIC, agar well diffusion method; assay type: cell-based; conditions: 37° C. overnight
Experimental: as §1

Streptococcus uberis = assay: MIC, agar well diffusion method; assay type: cell-based; conditions: 37° C. overnight
Experimental: as §1

Micrococcus luteus = assay: MIC, agar well diffusion method; assay type: cell-based; conditions: 37° C. overnight
Experimental: as §1

Bacillus cereus = assay: MIC, agar well diffusion method; assay type: cell-based; conditions: plate count agar +0.2% potato starch
Experimental: as §1

E.coli = assay: MIC, agar well diffusion method; assay type: cell-based; conditions: 37° C. overnight
Experimental: as §1

Lactobacillus bulgaricus = assay: Acidification of milk from treated cows by lactic fermenting bacteria; assay type: cell-based; conditions: 3 doses at 12 h
Text: (§2) Acidification is the first and most important step in the manufacturing processes when milk is fermented. If acidification proceeds normally then it is very likely that all other steps will be normal. Therefore one can investigate the effect of different concentrations of micrococcin P1 on the kinetics of acidification of milk by lactic fermenting bacteria.
(§3) Cows that are free from infection with mastitis pathogens, based on bacteriological culture of milk, are enrolled in these trials. Identical treatments are administered to all 4 quarters of an individual cow. Milk from evening milkings is refrigerated at 4° C. overnight to be tested the following morning. Samples of 500 ml are pasteurized by heating to 80° C. in a waterbath and then cooled to room temperature.
(§4) Lyophylised cultures as used in commercial conditions are obtained from Rudolf Wittwer, CH-5002 Rombach, Aarau, Switzerland. These cultures are reconstituted according to manufacturers recommendations and reactivated by passage three times in sterile skimmed milk. Each passage is incubated for 16 to 18 hours at the optimum temperature for the said bacterial strain.
(§5) The culture obtained after the third passage is diluted to 2% with whole sterile (UHT) milk, aliquotted in 10 ml tubes and frozen at -20° C. for use in experiments.
(§6) The stock cultures prepared above are thawed at 40° C. then incubated overnight at 37° C. and used to inoculate test samples. The test samples are inoculated with 2% by volume of the experimental culture of the bacterial strain under test. The samples are then mixed and incubated for 24 hours at the optimal temperature for the particular bacterial strain under evaluation. The pH is measured each two hours during an eight hour period and again at 24 hours. The rate of acidification of milk containing different concentrations of active micrococcin P1 can then be compared to the negative controls.
(§7) The results given in tables 4 and 5 below have been obtained from cows receiving various amounts of micrococcin P1 on three occasions, at 12 hour intervals.

[4] = system: Streptococcus thermophilus; assay: as above; assay type: cell-based; conditions: 3 doses at 12 h
Text: as §2, §3, §4, §5, §6, §7

[5] = Hydrophobicity and water solubility
[6] = system: pathogens causing bovine mastitis; assay: Activity against mastitis pathogens (general statement); assay type: cell-based
Staphylococcus aureus = assay: Efficacy in subclinical bovine mastitis (experimentally infected quarters, intramammary treatment); assay type: in vivo, cows (bovine); conditions: n = 9
Text: A dairy herd is maintained to supply candidate cows for enrollment in trials. Cows are bought from local cattle dealers. These cows should have a minimal milk production of 15 l/day. Two milk samples are taken one day apart from all quarters for bacteriological examination. No cows from which mastitis pathogens can be recovered are entered into the tests. Non-infected cows are selected based on non recovery of Staphylococcus aureus from two milk samples taken one day apart from all quarters. Then, 3 quarters are inoculated via the intramammary route using a suspension of Staphylococcus aureus. The 4th quarter serves as a control for the milking hygiene routines. During the two to four weeks after inoculation, milk samples are taken from all quarters, at least 3 times. These samples are cultured, and if Staphylococcus aureus is recovered from at least two of them, the quarter is considered infected.
Treatments are assigned randomly to infected quarters and injected via the intramammary route. Milk samples are taken daily until a minimum of 14 days after the last treatment. A quarter is considered to be cured if milk samples from that quarter become negative (i.e., no Staphylococcus aureus can be recovered) within 7 days after the last treatment and stay negative throughout the following 14 day sampling period.
This experimental model is used to have a fixed framework on which to evaluate treatments. To work with Staphylococcus aureus has the advantage that it is the most difficult Gram positive bacterium to treat and one of the most important bacteria causing bovine mastitis. Therefore, cure rates should be expected to be lower than for other Gram positive bacteria, such as Streptococci and coagulase-negative Staphylococci.
The results presented in Table 2 show the percentage of quarters positive for Staphylococcus aureus (i.e., quarters from which Staphylococcus aureus can be recovered) during and after treatment with 3 doses of either placebo, 2 mg micrococcin P1, or 300 mg ampiclox at 12 hour intervals, or 3 doses with 4 mg micrococcin P1 at 48 hour intervals.

micrococcin P1
MIC [1]: 1.91 µg/mL | MIC [2]: > 1000 µg/mL | MIC (Pasteurella haemolytica): > 1000 µg/mL | MIC (Streptococcus faecalis): 1.98 µg/mL | MIC (Listeria innocua): 1.95 µg/mL | MIC [3]: 0.24 µg/mL | MIC (Streptococcus uberis): 1.49 µg/mL | MIC (Micrococcus luteus): 0.015 µg/mL | MIC (Bacillus cereus): 0.24 µg/mL | MIC (E.coli): > 1000 µg/mL | pH (acidification of milk) (Lactobacillus bulgaricus; 0.1 mg, 0 hours of growth): 6.48 | pH (acidification of milk) (Lactobacillus bulgaricus; 0.1 mg, 2 hours of growth): 5.73 | pH (acidification of milk) (Lactobacillus bulgaricus; 0.1 mg, 4 hours of growth): 4.29 | pH (acidification of milk) (Lactobacillus bulgaricus; 0.1 mg, 6 hours of growth): 3.89 | pH (acidification of milk) (Lactobacillus bulgaricus; 0.1 mg, 8 hours of growth): 3.72 | pH (acidification of milk) (Lactobacillus bulgaricus; 0.1 mg, 24 hours of growth): 3.51 | pH (acidification of milk) (Lactobacillus bulgaricus; 0.5 mg, 0 hours of growth): 6.53 | pH (acidification of milk) (Lactobacillus bulgaricus; 0.5 mg, 2 hours of growth): 5.36 | pH (acidification of milk) (Lactobacillus bulgaricus; 0.5 mg, 4 hours of growth): 4.21 | pH (acidification of milk) (Lactobacillus bulgaricus; 0.5 mg, 6 hours of growth): 3.85 | pH (acidification of milk) (Lactobacillus bulgaricus; 0.5 mg, 8 hours of growth): 3.72 | pH (acidification of milk) (Lactobacillus bulgaricus; 0.5 mg, 24 hours of growth): 3.47 | pH (acidification of milk) (Lactobacillus bulgaricus; 1 mg, 0 hours of growth): 6.56 | pH (acidification of milk) (Lactobacillus bulgaricus; 1 mg, 2 hours of growth): 5.83 | pH (acidification of milk) (Lactobacillus bulgaricus; 1 mg, 4 hours of growth): 4.34 | pH (acidification of milk) (Lactobacillus bulgaricus; 1 mg, 6 hours of growth): 3.94 | pH (acidification of milk) (Lactobacillus bulgaricus; 1 mg, 8 hours of growth): 3.75 | pH (acidification of milk) (Lactobacillus bulgaricus; 1 mg, 24 hours of growth): 3.50 | pH (acidification of milk) (Lactobacillus bulgaricus; 2 mg, 0 hours of growth): 6.57 | pH (acidification of milk) (Lactobacillus bulgaricus; 2 mg, 2 hours of growth): 5.69 | pH (acidification of milk) (Lactobacillus bulgaricus; 2 mg, 4 hours of growth): 4.34 | pH (acidification of milk) (Lactobacillus bulgaricus; 2 mg, 6 hours of growth): 3.92 | pH (acidification of milk) (Lactobacillus bulgaricus; 2 mg, 8 hours of growth): 3.75 | pH (acidification of milk) (Lactobacillus bulgaricus; 2 mg, 24 hours of growth): 3.49 | pH (acidification of milk) ([4]; 0.1 mg, 0 hours of growth): 6.60 | pH (acidification of milk) ([4]; 0.1 mg, 2 hours of growth): 6.03 | pH (acidification of milk) ([4]; 0.1 mg, 4 hours of growth): 4.47 | pH (acidification of milk) ([4]; 0.1 mg, 6 hours of growth): 4.08 | pH (acidification of milk) ([4]; 0.1 mg, 8 hours of growth): 3.94 | pH (acidification of milk) ([4]; 0.1 mg, 24 hours of growth): 3.52 | pH (acidification of milk) ([4]; 0.5 mg, 0 hours of growth): 6.61 | pH (acidification of milk) ([4]; 0.5 mg, 2 hours of growth): 6.04 | pH (acidification of milk) ([4]; 0.5 mg, 4 hours of growth): 4.50 | pH (acidification of milk) ([4]; 0.5 mg, 6 hours of growth): 4.13 | pH (acidification of milk) ([4]; 0.5 mg, 8 hours of growth): 4.00 | pH (acidification of milk) ([4]; 0.5 mg, 24 hours of growth): 3.51 | pH (acidification of milk) ([4]; 1 mg, 0 hours of growth): 6.67 | pH (acidification of milk) ([4]; 1 mg, 2 hours of growth): 6.20 | pH (acidification of milk) ([4]; 1 mg, 4 hours of growth): 4.53 | pH (acidification of milk) ([4]; 1 mg, 6 hours of growth): 4.11 | pH (acidification of milk) ([4]; 1 mg, 8 hours of growth): 3.94 | pH (acidification of milk) ([4]; 1 mg, 24 hours of growth): 3.48 | pH (acidification of milk) ([4]; 2 mg, 0 hours of growth): 6.72 | pH (acidification of milk) ([4]; 2 mg, 2 hours of growth): 6.33 | pH (acidification of milk) ([4]; 2 mg, 4 hours of growth): 4.74 | pH (acidification of milk) ([4]; 2 mg, 6 hours of growth): 4.25 | pH (acidification of milk) ([4]; 2 mg, 8 hours of growth): 4.06 | pH (acidification of milk) ([4]; 2 mg, 24 hours of growth): 3.57 | hydrophobicity [5]: highly hydrophobic | solubility in water [5]: poorly soluble in water | activity against pathogens causing bovine mastitis [6]: highly active against pathogens causing bovine mastitis | % of quarters positive (Staphylococcus aureus; 3 × 2 mg each 12 hours, day 0 after start of treatment): 100.0% | % of quarters positive (Staphylococcus aureus; 3 × 2 mg each 12 hours, day 1 after start of treatment): 62.5% | % of quarters positive (Staphylococcus aureus; 3 × 2 mg each 12 hours, day 2 after start of treatment): 12.5% | % of quarters positive (Staphylococcus aureus; 3 × 2 mg each 12 hours, day 3 after start of treatment): 50.0% | % of quarters positive (Staphylococcus aureus; 3 × 2 mg each 12 hours, day 4 after start of treatment): 50.0% | % of quarters positive (Staphylococcus aureus; 3 × 2 mg each 12 hours, day 5 after start of treatment): 62.5% | % of quarters positive (Staphylococcus aureus; 3 × 2 mg each 12 hours, day 7 after start of treatment): 62.5% | % of quarters positive (Staphylococcus aureus; 3 × 2 mg each 12 hours, day 8 after start of treatment): 75.0% | % of quarters positive (Staphylococcus aureus; 3 × 2 mg each 12 hours, day 9 after start of treatment): 75.0% | % of quarters positive (Staphylococcus aureus; 3 × 2 mg each 12 hours, day 10 after start of treatment): 75.0% | % of quarters positive (Staphylococcus aureus; 3 × 2 mg each 12 hours, day 11 after start of treatment): 87.5% | % of quarters positive (Staphylococcus aureus; 3 × 2 mg each 12 hours, day 12 after start of treatment): 75.0% | % of quarters positive (Staphylococcus aureus; 3 × 2 mg each 12 hours, day 14 after start of treatment): 87.5% | % of quarters positive (Staphylococcus aureus; 3 × 2 mg each 12 hours, day 15 after start of treatment): 62.5% | % of quarters positive (Staphylococcus aureus; 3 × 2 mg each 12 hours, day 16 after start of treatment): 75.0% | % of quarters positive (Staphylococcus aureus; 3 × 4 mg each 48 hours, day 0 after start of treatment): 100% | % of quarters positive (Staphylococcus aureus; 3 × 4 mg each 48 hours, day 1 after start of treatment): 22% | % of quarters positive (Staphylococcus aureus; 3 × 4 mg each 48 hours, day 2 after start of treatment): 22% | % of quarters positive (Staphylococcus aureus; 3 × 4 mg each 48 hours, day 3 after start of treatment): 11% | % of quarters positive (Staphylococcus aureus; 3 × 4 mg each 48 hours, day 4 after start of treatment): 11% | % of quarters positive (Staphylococcus aureus; 3 × 4 mg each 48 hours, day 5 after start of treatment): 0% | % of quarters positive (Staphylococcus aureus; 3 × 4 mg each 48 hours, day 7 after start of treatment): 0% | % of quarters positive (Staphylococcus aureus; 3 × 4 mg each 48 hours, day 8 after start of treatment): 22% | % of quarters positive (Staphylococcus aureus; 3 × 4 mg each 48 hours, day 9 after start of treatment): 22% | % of quarters positive (Staphylococcus aureus; 3 × 4 mg each 48 hours, day 10 after start of treatment): 22% | % of quarters positive (Staphylococcus aureus; 3 × 4 mg each 48 hours, day 11 after start of treatment): 22% | % of quarters positive (Staphylococcus aureus; 3 × 4 mg each 48 hours, day 12 after start of treatment): 22% | % of quarters positive (Staphylococcus aureus; 3 × 4 mg each 48 hours, day 14 after start of treatment): 44% | % of quarters positive (Staphylococcus aureus; 3 × 4 mg each 48 hours, day 15 after start of treatment): 44% | % of quarters positive (Staphylococcus aureus; 3 × 4 mg each 48 hours, day 16 after start of treatment): 22%

C/C=C(\NC(=O)c1csc(-c2csc(-c3ccc4c(n3)-c3csc(n3)[C@H]([C@@H](C)O)NC(=O)c3csc(n3)[C@H](C(C)C)NC(=O)c3csc(n3)/C(=C/C)NC(=O)[C@H]([C@@H](C)O)NC(=O)c3csc-4n3)n2)n1)C(=O)NCC(C)=O [P2, micrococcin P2]
hydrophobicity [5]: highly hydrophobic | solubility in water [5]: poorly soluble in water | activity against pathogens causing bovine mastitis [6]: highly active against pathogens causing bovine mastitis
